How the values were obtained:
[1] = system: CC(=O)C(=O)O; assay: Enzyme kinetic parameters of mutant ω-transaminase Ancata-124; format: biochemical, Aspergillus terreus; conditions: other: PBS 50 mM, pH 8.0, 0.01 mM PLP, 25.0 °C
[2] = system: C[C@@H](N)c1ccccc1; assay: as above; format: biochemical, Aspergillus terreus; conditions: other: PBS 50 mM, pH 8.0, 0.01 mM PLP, 25.0 °C
[3] = system: CC(=O)C(=O)O; assay: Enzyme kinetic parameters of mutant ω-transaminase Ancata-101; format: biochemical, Aspergillus terreus; conditions: other: PBS 50 mM, pH 8.0, 0.01 mM PLP
[4] = system: C[C@@H](N)c1ccccc1; assay: as above; format: biochemical, Aspergillus terreus; conditions: other: PBS 50 mM, pH 8.0, 0.01 mM PLP
[5] = target: T1, Aspergillus terreus ω-transaminase mutant Ancata-101 (D5E-A12Q-I17V-S20A-T21S-E22A-T23S-A42H-I77L-T78S-T85S-L87M-R90K-D96E-Q97E-E104D-T130S-R131K-D134E-I135L-13 (Aspergillus terreus, UniProt Q0C8G1, A12Q/A174S/A195S/A246V/A313P/A42H/D134E/D153E/D5E/D96E/E104D/E22A/E248R/E323S/F250N/F258V/G292D/H210N/I135L/I175M/I17V/I295V/I77L/INS138N/INS325KKSG/L87M/M288K/N245D/N322E/N325S/Q236E/Q294K/Q97E/R131K/R266Q/R324A/R90K/S20A/T130S/T21S/T23S/T284S/T78S/T85S/V143I/V157T/V162I/V163I/V188T)); assay: as above; format: biochemical
T1 construct: ancestral reconstruction Ancata-101
Procedure: (§1) The enzyme activity of wild type and mutant ω-transaminase at different concentrations was determined by enzyme activity assay. The reaction rates V for different substrates as well as different substrate concentrations [S] were brought into the Michaelis-Menten equation V=Vmax×[S]/(Km+[S]), nonlinear curve fit was performed using Origin 8.0 software, and the enzyme kinetic parameters Km and Vmax were calculated for wild type and mutants; the conversion number kcat and catalytic efficiency kcat/Km were calculated for wild type and mutants from the equation kcat=Vmax/[E], where [E] was the molar concentration of the enzyme.

[6] = target: T2, Aspergillus terreus ω-transaminase mutant Ancata-124 (D5E-A12Q-I17V-S20A-T21S-E22A-T23S-A42H-I77L-T78S-T85A-R90K-D96E-Q97E-E104D-T130S-R130K-I135L-138insN-V143I (Aspergillus terreus, UniProt Q0C8G1, A12Q/A195S/A246V/A313P/A42H/D153E/D5E/D96E/E104D/E22A/E248R/E323S/F250N/F258V/G292D/H210N/I135L/I17V/I295V/I77L/INS138N/INS325KS/L263M/M154V/M288K/N245D/N322E/N325S/Q236E/Q294K/Q97E/R131K/R266Q/R324A/R90K/S20A/T130S/T21S/T23S/T284S/T78S/T85A/V143I/V157T/V162I/V163I)); assay: Enzyme kinetic parameters of mutant ω-transaminase Ancata-124; format: biochemical
T2 construct: ancestral reconstruction Ancata-124
Procedure: as §1

[7] = target: Aspergillus terreus ω-transaminase, wild type (WT-AT), SEQ ID NO. 2 (Aspergillus terreus, UniProt Q0C8G1); assay: Enzyme kinetic parameters of wild type ω-transaminase (WT-AT); format: biochemical; conditions: PBS 50 mM, pH 8.0, 0.01 mM PLP
Procedure: The wild-type ω-transaminase from Aspergillus terreus has an amino acid sequence as shown in SEQ ID NO. 2, and has a gene sequence as shown in SEQ ID NO. 1.
as §1

Aspergillus terreus ω-transaminase mutant Ancata-124 (D5E-A12Q-I17V-S20A-T21S-E22A-T23S-A42H-I77L-T78S-T85A-R90K-D96E-Q97E-E104D-T130S-R130K-I135L-138insN-V143I-D153E-M154V-V157T-V162I-V163I-A195S-H210N-Q236E-N245D-A246V-E248R-F250N-F258V-L263M-R266Q-T284S-M288K-G292D-Q294K-I295V-A313P-N322E-E323S-R324A-N325S-325insKS), SEQ ID NO. 6 (Aspergillus terreus NIH2624; A12Q/A195S/A246V/A313P/A42H/D153E/D5E/D96E/E104D/E22A/E248R/E323S/F250N/F258V/G292D/H210N/I135L/I17V/I295V/I77L/INS138N/INS325KS/L263M/M154V/M288K/N245D/N322E/N325S/Q236E/Q294K/Q97E/R131K/R266Q/R324A/)
Km [1]: 930 ± 10 µM
Km [2]: 280 ± 10 µM

Aspergillus terreus ω-transaminase mutant Ancata-101 (D5E-A12Q-I17V-S20A-T21S-E22A-T23S-A42H-I77L-T78S-T85S-L87M-R90K-D96E-Q97E-E104D-T130S-R131K-D134E-I135L-138insN-V143I-D153E-V157T-V162I-V163I-A174S-I175M-V188T-A195S-H210N-Q236E-N245D-A246V-E248R-F250N-F258V-R266Q-T284S-M288K-G292D-Q294K-I295V-A313P-N322E-E323S-R324A-N325S-325insKKSG), SEQ ID NO. 4 (Aspergillus terreus NIH2624; A12Q/A174S/A195S/A246V/A313P/A42H/D134E/D153E/D5E/D96E/E104D/E22A/E248R/E323S/F250N/F258V/G292D/H210N/I135L/I175M/I17V/I295V/I77L/INS138N/INS325KKSG/L87M/M288K/N245D/N322E/N325S/Q236E/Q294K/Q97E/R131K)
Km [3]: 1150 ± 20 µM
Km [4]: 280 ± 30 µM

C[C@@H](N)c1ccccc1 [α-MBA, (R)-(+)-α-methylbenzylamine]
Km (α-MBA) compared with wild type ([5]; in words, versus wild type): slightly higher than that of the wild type
Km (α-MBA) compared with wild type ([6]; in words, versus wild type): slightly higher than that of the wild type

CC(=O)C(=O)O [pyruvate, pyruvic acid]
kcat (pyruvate) ([5]; PBS 50 mM, pH 8.0, 0.01 mM PLP): 1.50 ± 0.03 s⁻¹
kcat/Km (pyruvate) ([5]; PBS 50 mM, pH 8.0, 0.01 mM PLP): 1300 M⁻¹ s⁻¹
catalytic efficiency for pyruvic acid compared with wild type ([5]; in words, versus wild type): lower than that of the wild type
kcat (pyruvate) ([6]; PBS 50 mM, pH 8.0, 0.01 mM PLP): 0.74 ± 0.03 s⁻¹
kcat/Km (pyruvate) ([6]; PBS 50 mM, pH 8.0, 0.01 mM PLP): 790 M⁻¹ s⁻¹
catalytic efficiency for pyruvic acid compared with wild type ([6]; in words, versus wild type): lower than that of the wild type
kcat (pyruvate) [7]: 0.50 ± 0.01 s⁻¹
kcat/Km (pyruvate) [7]: 2220 M⁻¹ s⁻¹
Km ([7]; read-out: Km (pyruvate)): 230 ± 20 µM

From patent publication US20250304928A1, “AN OMEGA-TRANSAMINASE MUTANT BASED ON […] SEQUENCE RECONSTRUCTION” (priority 2021, published 2025)
